Reference: US7737185B2 (Repros Therapeutics Inc., priority 2001, dated 2010)

Key:
[1] = tested on: serum cholesterol; test: Serum cholesterol in male baboons; assay type: in vivo; conditions: 1.5 mg/kg for 12 days
Description: (§1) The samples analyzed were sera taken on the day of first treatment before being given test article (day 0), after 12 days of treatment (day 12) and 7 days after the last treatment (end or wash-out).

[2] = tested on: total serum testosterone; test: Serum testosterone in male baboons given Clomid, Enclomid or Zuclomid; assay type: in vivo; conditions: for Effect on total serum testosterone: 1.5 mg/kg for 12 days, male baboons
Description: as §1

[3] = tested on: FSH, LH, testosterone; conditions: cited from earlier work
[4] = tested on: serum LH, FSH, PRL; test: Serum LH, FSH and prolactin in male baboons; assay type: in vivo; conditions: during the study
Description: as §1

[5] = tested on: serum LH, FSH; test: Placebo controlled challenge study Androxal vs Androgel: serum LH and FSH; assay type: in vivo, human
Protocol: (§2) Androgel® (Solvay Pharmaceuticals, Inc.) consists of a cream that administers exogenous testosterone in a transdermal matrix.
(§3) The study enrolled 62 hypogonadal men with testosterone levels less than 300 ng/dl (normal 298-1034 ng/dl) that were randomized into 6 different arms, three doses of Androxal™ (12.5 mg, 25 mg, and 50 mg), placebo, and both high and low doses of Androgel®. Half of the men in each of the Androxal™ and placebo arms were randomized into cohorts that underwent in-clinic sessions on days 1 and 14 to determine pharmacokinetic parameters for Androxal™ as well as cyclical changes in testosterone. The placebo and Androxal™ doses were administered in a double blind fashion. The Androgel® cream was administered in an open label fashion. Half of the Androgel® patients underwent in-clinic sessions similar to the other patients in the study. Following the two week drug exposure patients were followed for an additional seven to ten days to determine the status of their testosterone levels.

[6] = Placebo controlled challenge study Androxal vs Androgel: side effects; assay type: in vivo, human; conditions: hypogonadal men, two week exposure
Protocol: as §2, §3

[7] = tested on: total testosterone; test: Placebo controlled challenge study Androxal vs Androgel: total testosterone; assay type: in vivo, human; conditions: for Mean increase in testosterone from baseline: hypogonadal men, two weeks
Protocol: as §2, §3

[8] = tested on: triglycerides; test: Placebo controlled challenge study Androxal vs Androgel: triglycerides; assay type: in vivo, human; conditions: after two weeks of therapy, non-dose dependent; placebo 5.9% reduction
Protocol: as §2, §3

[9] = following a single dose; cited from earlier work

CCN(CC)CCOc1ccc(C(=C(Cl)c2ccccc2)c2ccccc2)cc1 [Clomid, clomiphene]
Change in serum cholesterol levels [1]: slight increase | Variability of total testosterone levels (coefficients of variation) ([2]; day 6 and later, compared to animals receiving Enclomid): more variable total testosterone levels | FSH, LH after treatment ([3]; both young and old men): increases in FSH, LH | Free and total testosterone after treatment ([3]; men, young men showing significant increases): increases in free and total testosterone

CCN(CC)CCOc1ccc(/C(=C(\Cl)c2ccccc2)c2ccccc2)cc1 [Enclomid, trans-clomiphene]
Serum prolactin (PRL) [4]: decrease in serum prolactin | Platelet count (12-day treatment): lowering of the platelet count | Eosinophil counts (male baboons): raising the counts | Lymphocytes, count and per cent (male baboons): increase | Red blood cell population (male baboons): substantive effects | Per cent of granulocytes in the blood (very strong after the 7-day washout period): strong effect | Decrease in serum cholesterol levels [1]: 8% | Serum LH in the follow-up period ([5]; 7-10 days after cessation of daily treatment): remained high | Serum FSH in the follow-up period ([5]; after cessation of treatment): remains high | Serum levels of LH during treatment ([5]; hypogonadal male subjects (FIG. 5)): statistically significant increase | Serum levels of FSH during treatment ([5]; hypogonadal male subjects (FIG. 6)): statistically significant increase | Effect on total serum testosterone [2]: significant increases in total serum testosterone | Change in total serum testosterone after cessation of treatment ([2]; between day 12 and day 18 (washout)): significant drop | Side effects different than placebo [6]: no side effects noted | Coefficient of variation (CV) of mean total testosterone ([7]; 50 mg dose, after 15 days): 29% | Mean total testosterone ([7]; 50 mg dose, after 15 days): 589 ± 172 ng/dL | Mean increase in testosterone from baseline ([7]; high dose (50 mg) oral): 294 ng/dL | Mean increase in testosterone from baseline ([7]; low dose (12.5 mg) oral): 169 ng/dL | Mean increase in testosterone from baseline ([7]; mid dose (25 mg) oral): 247 ng/dL | Reduction in triglycerides (average decrease) [8]: 19.1%

CCN(CC)CCOc1ccc(/C(=C(/Cl)c2ccccc2)c2ccccc2)cc1 [Zuclomid, cis-clomiphene, reference compound]
Residual blood levels [9]: in excess of one month | Hematocrit (male baboons): demonstrated a statistical difference | Red blood cell population (male baboons): substantive effects | Increase in serum cholesterol levels [1]: 22% | Effect on total serum testosterone [2]: did not raise total serum testosterone to any extent
